Laboratory results: the NIST ThermoML archive (doi:10.1021/je060033f)
Numbers after ± are expanded uncertainties.

assay: activity coefficient (dimensionless); of the first substance listed, at infinite dilution; xn = mol fraction of the nth substance listed; details: 323.15 K; 101 kPa; Liquid; Chromatography; x1 = 0

Compound	activity coefficient
C1CCCCC1 [cyclohexane] + CCCCCCCC[n+]1ccn(CCCB(O)O)c1.[Br-]	8.15 ± 0.56
ClCCl [dichloromethane] + CCCCCCCCCC[n+]1ccn(CCCB(O)O)c1.[Br-]	0.25 ± 0.03
Cc1cccc(C)c1 [1,3-dimethylbenzene] + C=CCn1cc[n+](C)c1.[Br-]	11.1 ± 0.76
CO [methanol] + CCCCCCCCCC[n+]1ccn(CCCB(O)O)c1.[Br-]	0.05
Cc1cccc(C)c1 [1,3-dimethylbenzene] + CCCCCCCCCC[n+]1ccn(CCCB(O)O)c1.[Br-]	2.11 ± 0.14
CO [methanol] + C[n+]1ccn(CCCB(O)O)c1.[Br-]	0.05
Cc1cccc(C)c1 [1,3-dimethylbenzene] + C=CC[n+]1ccn(CCCCCCCCCCCC)c1.[Br-]	1.85 ± 0.12
ClC(Cl)Cl [trichloromethane] + CCCCCCCCCCCC[n+]1ccn(CCCB(O)O)c1.[Br-]	0.19 ± 0.03
CO [methanol] + CCCCCCCCCCCC[n+]1ccn(CCCB(O)O)c1.[Br-]	0.04
Cc1ccccc1C [1,2-dimethylbenzene] + CCCCCCCCCCCC[n+]1ccn(CCCB(O)O)c1.[Br-]	1.78 ± 0.12
Cc1ccccc1 [toluene] + CCCCCCCC[n+]1ccn(CCCB(O)O)c1.[Br-]	2.41 ± 0.16
Cc1cccc(C)c1 [1,3-dimethylbenzene] + C=CC[n+]1ccn(CCCCCCCCCC)c1.[Br-]	2.73 ± 0.19
CCC(C)=O [butanone] + C=CCn1cc[n+](C)c1.[Br-]	2.68 ± 0.18
CCC(C)=O [butanone] + CCCCCCCCCC[n+]1ccn(CCCB(O)O)c1.[Br-]	1.59 ± 0.11
CCCCCCCC [octane] + C=CCn1cc[n+](C)c1.[Br-]	63 ± 4.3
CCC[N+](=O)[O-] [1-nitropropane] + C=CC[n+]1ccn(CCCCCCCCCCCC)c1.[Br-]	1.12 ± 0.07
C=CCCCC [hex-1-ene] + CCCCCCCC[n+]1ccn(CCCB(O)O)c1.[Br-]	8.32 ± 0.57
CO [methanol] + C=CC[n+]1ccn(CCCCCCCCCCCC)c1.[Br-]	0.15 ± 0.03
CCCC(C)=O [pentan-2-one] + C=CC[n+]1ccn(CCCCCCCC)c1.[Br-]	1.93 ± 0.13
C1CCCCC1 [cyclohexane] + C=CC[n+]1ccn(CCCCCCCCCCCC)c1.[Br-]	3.12 ± 0.21
CCCCCC [hexane] + C=CC[n+]1ccn(CCCCCCCC)c1.[Br-]	8.9 ± 0.61
CCC(C)=O [butanone] + CCCCCCCC[n+]1ccn(CCCB(O)O)c1.[Br-]	1.88 ± 0.13

Compound	activity coefficient
CCCCCC [hexane] + C=CC[n+]1ccn(CCCCCCCCCCCC)c1.[Br-]	4.41 ± 0.3
CCC[N+](=O)[O-] [1-nitropropane] + C=CC[n+]1ccn(CCCCCCCC)c1.[Br-]	1.23 ± 0.08
CCCCCCCCC [nonane] + CCCCCCCC[n+]1ccn(CCCB(O)O)c1.[Br-]	26.2 ± 1.8
ClC(Cl)(Cl)Cl [tetrachloromethane] + C=CC[n+]1ccn(CCCCCCCC)c1.[Br-]	0.82 ± 0.05
CCCCCCC [heptane] + CCCCCCCCCCCC[n+]1ccn(CCCB(O)O)c1.[Br-]	5.36 ± 0.37
Cc1cccc(C)c1 [1,3-dimethylbenzene] + C[n+]1ccn(CCCB(O)O)c1.[Br-]	48.1 ± 3.3
CCCCCCC [heptane] + C=CC[n+]1ccn(CCCCCCCC)c1.[Br-]	11.4 ± 0.78
ClCCl [dichloromethane] + CCCCCCCC[n+]1ccn(CCCB(O)O)c1.[Br-]	0.41 ± 0.03
ClCCl [dichloromethane] + C=CC[n+]1ccn(CCCCCCCCCC)c1.[Br-]	0.27 ± 0.03
CC(C)CO [2-methyl-1-propanol] + C=CC[n+]1ccn(CCCCCCCCCC)c1.[Br-]	0.29 ± 0.03
c1ccsc1 [thiophene] + CCCCCCCCCC[n+]1ccn(CCCB(O)O)c1.[Br-]	0.79 ± 0.05
CC#N [acetonitrile] + C=CC[n+]1ccn(CCCCCCCC)c1.[Br-]	0.98 ± 0.06
CCc1ccccc1 [ethylbenzene] + C=CC[n+]1ccn(CCCCCCCC)c1.[Br-]	2.56 ± 0.17
C1COCCO1 [1,4-dioxane] + C=CC[n+]1ccn(CCCCCCCCCCCC)c1.[Br-]	1.3 ± 0.08
CCCC(C)=O [pentan-2-one] + C=CC[n+]1ccn(CCCCCCCCCC)c1.[Br-]	1.78 ± 0.12
c1ccccc1 [benzene] + CCCCCCCCCC[n+]1ccn(CCCB(O)O)c1.[Br-]	1.33 ± 0.09
CCCCCCCCC [nonane] + C=CC[n+]1ccn(CCCCCCCCCCCC)c1.[Br-]	6.93 ± 0.47
C1COCCO1 [1,4-dioxane] + CCCCCCCCCC[n+]1ccn(CCCB(O)O)c1.[Br-]	1.38 ± 0.09
CCCCCC [hexane] + CCCCCCCCCC[n+]1ccn(CCCB(O)O)c1.[Br-]	5.45 ± 0.37
CCC(C)=O [butanone] + C[n+]1ccn(CCCB(O)O)c1.[Br-]	21.8 ± 1.5
CCCCCC [hexane] + C=CC[n+]1ccn(CCCCCCCCCC)c1.[Br-]	8.39 ± 0.57
ClC(Cl)Cl [trichloromethane] + C=CCn1cc[n+](C)c1.[Br-]	0.25 ± 0.03

Compound	activity coefficient
ClC(Cl)Cl [trichloromethane] + CCCCCCCC[n+]1ccn(CCCB(O)O)c1.[Br-]	0.23 ± 0.03
Cc1ccccc1 [toluene] + C[n+]1ccn(CCCB(O)O)c1.[Br-]	38.8 ± 2.6
CCc1ccccc1 [ethylbenzene] + C=CC[n+]1ccn(CCCCCCCCCC)c1.[Br-]	2.54 ± 0.17
CC#N [acetonitrile] + CCCCCCCCCC[n+]1ccn(CCCB(O)O)c1.[Br-]	0.95 ± 0.06
Cc1ccccc1C [1,2-dimethylbenzene] + C=CC[n+]1ccn(CCCCCCCCCC)c1.[Br-]	2.34 ± 0.16
CC(C)O [propan-2-ol] + C=CC[n+]1ccn(CCCCCCCCCC)c1.[Br-]	0.35 ± 0.03
ClC(Cl)Cl [trichloromethane] + C=CC[n+]1ccn(CCCCCCCCCCCC)c1.[Br-]	0.12 ± 0.03
c1ccccc1 [benzene] + CCCCCCCCCCCC[n+]1ccn(CCCB(O)O)c1.[Br-]	1.21 ± 0.08
ClCCl [dichloromethane] + C=CC[n+]1ccn(CCCCCCCC)c1.[Br-]	0.28 ± 0.03
ClCCl [dichloromethane] + C[n+]1ccn(CCCB(O)O)c1.[Br-]	3.2 ± 0.22
c1ccsc1 [thiophene] + C[n+]1ccn(CCCB(O)O)c1.[Br-]	19.4 ± 1.3
CCc1ccccc1 [ethylbenzene] + C=CCn1cc[n+](C)c1.[Br-]	11.1 ± 0.76
C1CCCCC1 [cyclohexane] + CCCCCCCCCCCC[n+]1ccn(CCCB(O)O)c1.[Br-]	3.25 ± 0.22
CCc1ccccc1 [ethylbenzene] + C=CC[n+]1ccn(CCCCCCCCCCCC)c1.[Br-]	1.77 ± 0.12
Cc1cccc(C)c1 [1,3-dimethylbenzene] + C=CC[n+]1ccn(CCCCCCCC)c1.[Br-]	2.73 ± 0.19
CCCC(C)=O [pentan-2-one] + C[n+]1ccn(CCCB(O)O)c1.[Br-]	24.2 ± 1.7
CCC[N+](=O)[O-] [1-nitropropane] + CCCCCCCC[n+]1ccn(CCCB(O)O)c1.[Br-]	1.58 ± 0.1
C=CCCCC [hex-1-ene] + C=CC[n+]1ccn(CCCCCCCC)c1.[Br-]	5.93 ± 0.4
CCOCC [diethyl ether] + C=CC[n+]1ccn(CCCCCCCCCCCC)c1.[Br-]	2.95 ± 0.2
CCCC(C)=O [pentan-2-one] + C=CCn1cc[n+](C)c1.[Br-]	4.32 ± 0.29
CCC[N+](=O)[O-] [1-nitropropane] + C=CC[n+]1ccn(CCCCCCCCCC)c1.[Br-]	1.14 ± 0.07
Cc1ccccc1 [toluene] + C=CC[n+]1ccn(CCCCCCCCCC)c1.[Br-]	1.85 ± 0.12

Compound	activity coefficient
C#CCCCCC [1-heptyne] + CCCCCCCC[n+]1ccn(CCCB(O)O)c1.[Br-]	3.7 ± 0.25
CCc1ccccc1 [ethylbenzene] + C[n+]1ccn(CCCB(O)O)c1.[Br-]	45.1 ± 3.1
Cc1ccccc1 [toluene] + CCCCCCCCCCCC[n+]1ccn(CCCB(O)O)c1.[Br-]	3.36 ± 0.23
Cc1ccccc1 [toluene] + C=CCn1cc[n+](C)c1.[Br-]	6.19 ± 0.42
C#CCCCCC [1-heptyne] + CCCCCCCCCCCC[n+]1ccn(CCCB(O)O)c1.[Br-]	2.2 ± 0.15
CC(C)CO [2-methyl-1-propanol] + C=CC[n+]1ccn(CCCCCCCCCCCC)c1.[Br-]	0.23 ± 0.03
c1ccsc1 [thiophene] + C=CC[n+]1ccn(CCCCCCCC)c1.[Br-]	0.93 ± 0.06
C#CCCCCC [1-heptyne] + C=CCn1cc[n+](C)c1.[Br-]	13.2 ± 0.9
CCCCCCCCC [nonane] + C=CC[n+]1ccn(CCCCCCCC)c1.[Br-]	17.4 ± 1.2
CCO [ethanol] + C=CC[n+]1ccn(CCCCCCCCCC)c1.[Br-]	0.26 ± 0.03
CC#N [acetonitrile] + CCCCCCCC[n+]1ccn(CCCB(O)O)c1.[Br-]	1.28 ± 0.08
Cc1ccccc1 [toluene] + C=CC[n+]1ccn(CCCCCCCCCCCC)c1.[Br-]	1.38 ± 0.09
ClCCl [dichloromethane] + C=CCn1cc[n+](C)c1.[Br-]	0.33 ± 0.03
C#CCCCCC [1-heptyne] + C=CC[n+]1ccn(CCCCCCCCCC)c1.[Br-]	2.58 ± 0.18
c1ccsc1 [thiophene] + C=CC[n+]1ccn(CCCCCCCCCC)c1.[Br-]	0.89 ± 0.06
CCC(C)=O [butanone] + C=CC[n+]1ccn(CCCCCCCC)c1.[Br-]	1.46 ± 0.1
ClC(Cl)Cl [trichloromethane] + C[n+]1ccn(CCCB(O)O)c1.[Br-]	3.01 ± 0.2
CCCCCCCCC [nonane] + C[n+]1ccn(CCCB(O)O)c1.[Br-]	83.2 ± 5.7
ClC(Cl)Cl [trichloromethane] + CCCCCCCCCC[n+]1ccn(CCCB(O)O)c1.[Br-]	0.12 ± 0.03
C=CCCCC [hex-1-ene] + CCCCCCCCCC[n+]1ccn(CCCB(O)O)c1.[Br-]	3.76 ± 0.26
C#CCCCCC [1-heptyne] + CCCCCCCCCC[n+]1ccn(CCCB(O)O)c1.[Br-]	2.22 ± 0.15
